# Test results from patent US20070116713A1, “Compositions and methods for reducing or controlling blood cholesterol, lipoproteins, triglycerides and atherosclerosis” (priority 2005, published 2007).
# Experiment: Case study: subjects taking capsules of the exemplary composition with exercise and low-fat diet; total cholesterol, triglycerides, LDL, HDL tracked
# Type: in vivo, humans
# Settings: in two of the subjects; removed from the formulation
# Excerpt: An initial study included 34 subjects. The subjects were advised to exercise and follow a strict low-fat diet, in addition to consuming doses of the exemplary composition. The subjects were tracked from 8 to 24 months.
# It is contemplated within the scope of the invention to provide alternate formulations which eliminate nicotinic acid for use by those persons who cannot tolerate it.
structure (smiles),measurement,value
O=C(O)c1cccnc1 [nicotinic acid],tolerability of nicotinic acid in the formulation,not tolerated
